Test results taken from patent US20250387409A1, “3-BETA-HYDROXY-3-ALPHA-ETHYL STEROIDS FOR MODULATION OF THE ALPHA-3 SUBTYPE OF THE GABAA RECEPTOR” (priority 2021, published 2025).

What was measured:
[1] = biological target: T1, GABAA receptor subtype α1β2γ2 (Homo sapiens, UniProt P14867+P47870); test: Patch clamp THDOC enhancement of GABA response, α1β2γ2; assay type: cell-based; conditions: 1 μM steroid + THDOC
T1 construct: expressed in transfected cells
Excerpt: (§1) In these tests the protocol was optimized to be like the physiological conditions in the synaptic cleft.
Preparation of cell lines: HEK-293 cells permanently transfected with the human α1-β2-γ2L, α2-β3-γ2S, α3-ββ3-γ2L, α4-β3-δ or α5-β3-γ2L GABAA-receptor subtypes were used. The cell lines permanently expressing a functional human GABAA-receptor was made in following steps. The human GABAA-receptor subunits e.g. α1 (308-1727 NM_000806), β2 (214-1679 NM_000813), γ2L (290-1785 NM_198904), α2, β3, γ2S, α3, α4, δ and α5 including introduced Kozac sequences just before the start codons were subcloned into mammalian expression vectors containing Geneticin, Hygromycin B, and Zeocin resistance, respectively. A HEK-293 cell line stably expressing the three GABAA-receptor subunits was produced by transfection of the subunits, one at a time. The transfection was followed by selection with the appropriate antibiotics, cell separation with the use of subunit specific antibodies and production of single cell colonies. Produced cell lines were analysed with immunocytochemistry for the three GABAA-receptor subunits, followed by selection of a suitable cell line showing, for the GABAA-receptor normal and good reactivity in a patch-clamp analysis (see below) towards GABA and the GAMS THDOC. […]

GABAA receptor = conditions: table 3 in WO 09/142594; cited from earlier work
Male Wistar rats [2] = test: Weight increase in growing male rats, experiment 1 (IV injections, 5 days); assay type: in vivo, rat; conditions: 2 mg/kg IV
Method: (§2) Animals: Male Wistar rats were kept in group cages, with three animals per cage, from delivery and throughout the period of experiments. The individual animals were marked so that they could be identified throughout the experiment duration. The animals weight an average of 152 g upon arrival. A reversed light dark (12:12h) cycle was used with the dark period onset at 0600 hrs. Altogether fifty-six (56) rats were used in this study (experiment 1+2). The animals were delivered from the breeder Taconic (Denmark). The study protocol was approved by the Regional Ethics Committee of Umeå University, Sweden.
(§3) Feeding: Standard chow and water were available ad libitum. A reversed 12-h dark-light cycle with lights off at 10.00 am and lights on at 22.00 pm was used. For identification, the rats were marked with a permanent marker on the tail. To avoid the endogenous allopregnanolone fluctuations that are present in the oestrous cycle of female rats, male rats were chosen (Frye et al. 2000). The animals were allowed to acclimatize for at least 3 weeks before start of the experimental sessions. During this period, the rats were repeatedly handled and allowed habituation to the new environment and to all new procedures, to minimize stress during the experiments.
(§4) After 14 days of triad housing, handling and injection training of the animals, the animals were treated for 5 days with IV injections in experiment 1 and 10 days with a daily subcutaneous injection of the assigned treatment in experiment 2 (Tables 4 and 5). The injections were given at 08.00 every morning. The animals were weighed the day before onset of the treatment and at the last day of injection i.e. on the 5th or 10th day of treatment. Weight was taken at the time of the last injection. […] The results are shown in FIG. 3 (experiment 1) and FIG. 4 (experiment 2), respectively.

Male Wistar rats [3] = test: Weight increase in growing male rats, experiment 2 (daily subcutaneous injection, 10 days); assay type: in vivo, rat; conditions: for reduced weight versus the E+P control rats / reduction in weight compared to vehicle: 10 days
Method: as §2, §3, §4

[4] = biological target: T2, human GABAA-receptor subtype α3β3γ2L (Homo sapiens, UniProt P28472+P34903); test: Patch clamp (Dynaflow) THDOC enhancement of GABA response, HEK-293 cells, α3β3γ2L; assay type: cell-based; conditions: 1 μM steroid + THDOC
T2 construct: expressed in transfected cells
Excerpt: as §1
(§5) Preparation of cell lines: HEK-293 cells permanently transfected with the human α1-β2-γ2L, α2-β3-γ2S, α3-ββ3-γ2L, α4-β3-δ or α5-β3-γ2L GABAA-receptor subtypes were used. The cell lines permanently expressing a functional human GABAA-receptor was made in following steps. The human GABAA-receptor subunits e.g. α1 (308-1727 NM_000806), β2 (214-1679 NM_000813), γ2L (290-1785 NM_198904), α2, β3, γ2S, α3, α4, δ and α5 including introduced Kozac sequences just before the start codons were subcloned into mammalian expression vectors containing Geneticin, Hygromycin B, and Zeocin resistance, respectively. A HEK-293 cell line stably expressing the three GABAA-receptor subunits was produced by transfection of the subunits, one at a time. The transfection was followed by selection with the appropriate antibiotics, cell separation with the use of subunit specific antibodies and production of single cell colonies. Produced cell lines were analysed with immunocytochemistry for the three GABAA-receptor subunits, followed by selection of a suitable cell line showing, for the GABAA-receptor normal and good reactivity in a patch-clamp analysis (see below) towards GABA and the GAMS THDOC.
(§6) Cell culture: HEK-293 cells, permanently transfected with human α1-β2-γ2L, α2-β3-γ2S, α3-β3-γ2L, α4-β3-δ and α5-β3-γ2L GABAA-receptor subtypes, were seeded at a density of 3×10^4/25 cm^2 in cell binding culture flask. The transfected cells were used for patch-clamp experiments 3 days after seeding. When using the cells for patch-clamp experiments the cells were washed twice with oxygen-bubbled EC-solution (see below). About 5 mL EC was then added and the cells were kept in the incubator for about 15 minutes. After 15 minutes the cells came loose from the bottom of the flask and were separated by carefully sucking couple of times with a Pasteur pipette.
(§7) Dynaflow™ system: Dynaflow™ system with resolve chips was used for all patch-clamp experiments. The resolve chips is made of non-sticky materials. The channel width is 150 μm and the height 50 μm. The well volume is 280 μL. Run time at the flow rate of 26 μL/min is […]. The pump settings were as follow: Omnifix 2 ml syringe with inner diameter of 9.65 mm was used. The syringe pump flow rate of chip was 26 μL/min.
(§8) Steroids and GABA: GABA was dissolved in EC-solution by ultrasound for about 40 minutes to the concentration of 10 mM in room temperature. All steroids were dissolved to the concentration of 6 mM in dimethyl sulfoxide (DMSO). The DMSO concentration was 0.1% in all end-solutions, including the wash solution (EC) and the solution with GABA alone. End-solutions are the solutions added into the wells of the chip.
(§9) Electrophysiology: Patch electrodes were pulled from 1.5 mm O.D., 0.86 mm I.D. borosilicate capillary glass without filament. […] The intracellular solution (IC) comprised of (in mM): 140 Cs-gluconate, 3.0 NaCl, 1.2 MgCl2, 1.0 EGTA, 10 HEPES. pH was adjusted to 7.2 with CsOH. The extracellular (EC) solution used during recordings contained (in mM): 137 NaCl, 5.0 KCl, 1.0 CaCl2), 1.2 MgCl2, 10 HEPES, 10 glucose. pH was adjusted with NaOH to 7.4. After compensating for the liquid junction potential, a steady holding potential of −17 mV was used in all experiments. In physiological conditions the HEK-293 has a resting potential at −40 mV and a low concentration of chloride ions inside the cell. By using the holding potential of-17 mV and the intracellular solution with low chloride ion concentration the chloride ions flux into the cell when the receptors are activated. All experiments were performed at room temperature (21 to 23° C.). The following standard protocol was used for all experiments.
(§10) GABA applications: By using the Dynaflow equipment it is possible to study transfected HEK-293 during almost physiological conditions.

[5] = biological target: T3, human α1-β2-γ2L GABAA-receptor subtype (Homo sapiens, UniProt P14867+P47870); test: Patch clamp (Dynaflow) GABA-mediated current response, HEK-293 cells, α1β2γ2L; assay type: cell-based; conditions: 1 μM steroid; essentially as in Example 2
T3 construct: expressed in transfected cells
Excerpt: as §1, §5, §6, §7, §8
as §9, with “By using the holding potential of-17 mV and the intracellular solution with low chloride ion concentration the chloride ions flux into the cell when the receptors are activated. All experiments were performed at room temperature (21 to 23° C.). The following standard protocol was used for all experiments.” left out

[6] = biological target: T4, human α3-β3-γ2L GABAA-receptor subtype (Homo sapiens, UniProt P28472+P34903); test: Patch clamp (Dynaflow) GABA-mediated current response, HEK-293 cells, α3β3γ2L; assay type: cell-based; conditions: 1 μM steroid; essentially as in Example 2
T4 construct: expressed in transfected cells
Excerpt: as §1, §5, §6, §7, §8, §9, §10

[7] = 1 mg/kg s.c. + 5 mg/kg progesterone + 10 μg/kg 17β-estradiol
[8] = 5 mg/kg s.c. + 5 mg/kg progesterone + 10 μg/kg 17β-estradiol

T4 sequence (P34903 29-492): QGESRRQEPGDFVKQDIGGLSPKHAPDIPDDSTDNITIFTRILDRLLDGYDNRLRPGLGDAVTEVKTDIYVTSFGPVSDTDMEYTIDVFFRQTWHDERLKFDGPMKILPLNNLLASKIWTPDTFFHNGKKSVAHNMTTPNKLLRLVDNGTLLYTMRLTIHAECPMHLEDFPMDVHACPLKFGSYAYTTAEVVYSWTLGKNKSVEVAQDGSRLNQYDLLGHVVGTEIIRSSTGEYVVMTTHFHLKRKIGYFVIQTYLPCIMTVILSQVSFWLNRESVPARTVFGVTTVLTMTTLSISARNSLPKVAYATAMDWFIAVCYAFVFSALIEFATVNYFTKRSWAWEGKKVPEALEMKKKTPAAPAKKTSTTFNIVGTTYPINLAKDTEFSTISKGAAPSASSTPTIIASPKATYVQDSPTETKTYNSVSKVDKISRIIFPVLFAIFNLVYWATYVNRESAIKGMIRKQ
T4 sequence (P28472 26-473): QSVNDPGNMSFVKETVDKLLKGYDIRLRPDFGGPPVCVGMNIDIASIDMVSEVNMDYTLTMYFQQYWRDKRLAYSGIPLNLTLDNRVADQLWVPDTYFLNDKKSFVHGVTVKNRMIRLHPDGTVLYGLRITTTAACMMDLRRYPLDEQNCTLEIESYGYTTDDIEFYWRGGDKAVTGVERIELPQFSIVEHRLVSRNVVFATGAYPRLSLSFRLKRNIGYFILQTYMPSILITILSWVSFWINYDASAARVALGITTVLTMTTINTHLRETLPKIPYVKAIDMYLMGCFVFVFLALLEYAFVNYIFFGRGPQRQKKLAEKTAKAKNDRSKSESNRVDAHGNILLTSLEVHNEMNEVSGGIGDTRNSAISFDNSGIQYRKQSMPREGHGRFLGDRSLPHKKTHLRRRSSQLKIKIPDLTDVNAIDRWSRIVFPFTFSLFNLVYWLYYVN
T4 sequence (P18507 40-475 partner): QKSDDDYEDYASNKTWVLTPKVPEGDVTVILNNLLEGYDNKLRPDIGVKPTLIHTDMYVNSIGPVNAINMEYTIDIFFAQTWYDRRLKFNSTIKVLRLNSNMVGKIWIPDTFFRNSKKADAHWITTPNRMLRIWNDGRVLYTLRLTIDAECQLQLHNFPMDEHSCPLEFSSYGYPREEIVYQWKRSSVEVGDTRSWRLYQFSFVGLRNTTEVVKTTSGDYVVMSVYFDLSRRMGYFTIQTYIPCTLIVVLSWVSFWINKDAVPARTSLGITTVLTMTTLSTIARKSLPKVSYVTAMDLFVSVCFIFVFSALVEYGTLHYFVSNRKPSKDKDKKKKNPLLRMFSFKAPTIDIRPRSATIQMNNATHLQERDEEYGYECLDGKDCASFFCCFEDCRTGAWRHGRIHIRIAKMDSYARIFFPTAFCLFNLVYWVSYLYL
T2 sequence (P34903 29-492): as the sequence (P34903 29-492) above
T2 sequence (P28472 26-473): as the sequence (P28472 26-473) above
T2 sequence (P18507 40-475 partner): as the sequence (P18507 40-475 partner) above
T1 sequence (P14867 28-456): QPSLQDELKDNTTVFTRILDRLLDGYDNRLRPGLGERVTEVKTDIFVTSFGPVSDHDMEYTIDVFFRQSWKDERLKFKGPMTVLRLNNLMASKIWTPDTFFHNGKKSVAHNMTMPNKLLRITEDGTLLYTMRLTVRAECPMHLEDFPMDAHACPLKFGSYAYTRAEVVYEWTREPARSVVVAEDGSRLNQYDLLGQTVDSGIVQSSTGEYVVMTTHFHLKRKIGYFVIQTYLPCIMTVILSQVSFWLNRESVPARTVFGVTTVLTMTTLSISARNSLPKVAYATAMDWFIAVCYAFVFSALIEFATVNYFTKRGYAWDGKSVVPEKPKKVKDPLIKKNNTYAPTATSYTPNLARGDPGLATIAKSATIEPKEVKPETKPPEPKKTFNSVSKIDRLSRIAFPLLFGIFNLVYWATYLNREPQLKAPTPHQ
T1 sequence (P47870 26-474 isoform P47870-1 limits assumed): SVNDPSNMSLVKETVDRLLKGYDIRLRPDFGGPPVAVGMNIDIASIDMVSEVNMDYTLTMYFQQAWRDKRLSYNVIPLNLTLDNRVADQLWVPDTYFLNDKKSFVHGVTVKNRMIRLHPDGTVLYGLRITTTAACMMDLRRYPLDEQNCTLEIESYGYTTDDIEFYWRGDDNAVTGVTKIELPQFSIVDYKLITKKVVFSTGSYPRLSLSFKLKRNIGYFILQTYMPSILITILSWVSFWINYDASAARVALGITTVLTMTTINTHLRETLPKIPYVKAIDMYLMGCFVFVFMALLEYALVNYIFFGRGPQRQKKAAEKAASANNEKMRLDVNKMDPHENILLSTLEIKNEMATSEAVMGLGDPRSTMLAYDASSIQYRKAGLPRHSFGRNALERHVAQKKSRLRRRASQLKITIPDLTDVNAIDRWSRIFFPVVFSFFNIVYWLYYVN
T1 sequence (P18507 40-475 partner): as the sequence (P18507 40-475 partner) above
T3 sequence (P14867 28-456): as the sequence (P14867 28-456) above
T3 sequence (P47870 26-474 isoform P47870-1 limits assumed): as the sequence (P47870 26-474 isoform P47870-1 limits assumed) above
T3 sequence (P18507 40-475 partner): as the sequence (P18507 40-475 partner) above

Q: With `C#C[C@]1(O)CC[C@@]2(C)[C@@H](CC[C@@H]3[C@@H]2CC[C@]2(C)C(=O)CC[C@@H]32)C1` [3α-ethynyl-3β-hydroxy-5α-androstan-17-one] as the compound, how does the “Antagonism of 100 nM THDOC-enhancement, α1β2γ2” value [1] read?
A: Its value is “No effect”.

Q: And the “effect as a GAMSA or GAMS” value (GABAA receptor)?
A: Its value is “no effect as a GAMSA or GAMS”.

Q: What about the “increase in weight versus vehicle treated groups” value (Male Wistar rats [2]) of the same compound?
A: The value was “significantly lower”.

Q: And the “Mean weight increase since arrival. g” value (Male Wistar rats [2]; in 10% β-cyclodextrine 1 ml/kg, first block of Table 6)?
A: The value was 97.43 g.

Q: And the “Mean weight increase since arrival. g” value (Male Wistar rats [2]; second block of Table 6 (increase from start of treatment))?
A: The value was 11.86 g.

Q: What about the “reduced weight versus the E+P control rats” value (Male Wistar rats [3]; [7]) of the same compound?
A: The value was -23.9 ± 4.4 g.

Q: And the “reduction in weight compared to vehicle” value (Male Wistar rats [3]; [7])?
A: Its value is -33 ± 4.4 g.

Q: And the “reduced weight versus the E+P control rats” value (Male Wistar rats [3]; [8])?
A: The value was -20.4 ± 5.2 g.

Q: What about the “reduction in weight compared to vehicle” value (Male Wistar rats [3]; [8]) of the same compound?
A: The value was -29.6 ± 5.2 g.

Q: What about the “weight difference after 10 days of treatment compared to vehicle” value (Male Wistar rats [3]; 10 days s.c. treatment) of the same compound?
A: Its value is “over 20%”.

Q: What about the “Antagonism of 100 nM THDOC-enhancement, a3β3γ2” value [4] of the same compound?
A: The value was −166 + 19.9%,.

Q: What about the “Effect against GABAs agonistic effect, α1β2γ2” value [5] of the same compound?
A: The value was −1.9 ± 2.4%.

Q: And the “Effect against GABAs agonistic effect, a3β3γ2” value [6]?
A: The value was −46 ± 1.3%,.
